Assay results reported in PMC7179297, “Preclinical Antimalarial Combination Study of M5717, a Plasmodium falciparum Elongation Factor 2 Inhibitor, and Pyronaridine, a Hemozoin Formation Inhibitor” (Antimicrobial Agents and Chemotherapy, 2020).
pEC50: −log10 of the molar value.

System: P. falciparum NF54 strain
Experiment: [3H]hypoxanthine incorporation assay, individual drugs
Assay type: cell-based
Conditions: Plasmodium falciparum, 72 h
Experimental: IC50 and drug interaction studies were performed as previously described ([27], [28]). […] Cultures were harvested onto glass fiber filters, washed, and the radioactivity was counted using a MicroBetaplate liquid scintillation counter and recorded as counts per minute (cpm) per well. Results are expressed as a percentage of the untreated controls (see the supplemental material for more details). page 2: 25 In vitro isobolograms 26 Compounds were tested against intraerythrocytic forms of P. falciparum derived from asynchronous stock cultures 27 of lab strain NF54 (Schiphol airport strain of unknown origin), as previously described.i,ii The culture medium was […] 29 mM HEPES, 25 mM NaHCO3 (pH 7.3), 0.36 mM hypoxanthine and 100 μg/mL neomycin. Human type A+ 30 erythrocytes served as host cells. […] 31 in humidified modular chambers. Testing of the individual drugs was carried out in 96-well microtiter plates. The 32 compounds were dissolved in DMSO (10 mg/mL), prediluted in hypoxanthine-free culture medium and titrated in […] After addition of an equal volume of parasite culture with a parasitemia of […] Parasite growth was measured by the incorporation of radiolabelled [3H]hypoxanthine (0.25 µCi in […] 37 assay duration) prior to the termination of the test. Cultures were harvested onto glass-fiber filters and washed with 38 distilled water. The radioactivity was counted using a MicroBetaplate liquid scintillation counter (Wallac, Zürich, 39 Switzerland) and the results recorded as counts per minute (cpm) per well at each drug concentration and expressed 40 as percentage of the untreated controls. Fifty percent inhibitory concentrations (IC50) were determined by linear 41 interpolation.v 42 43 For data interpretation, the IC50s of the drugs in combination were expressed as fractions of the IC50s of the drugs 44 alone. These fractions were called “Fractional Inhibitory Concentrations” (FIC) for drug A and for drug B, 45 respectively. 46 FIC Drug A = IC50 A (B) IC50 A […] 49 50 Formulation 51 Pyronaridine (tetraphosphate salt) and […] (succinate salt) were solubilized in a vehicle consisting of 70% […] 54 55 2

| pEC50 | Structure (SMILES) |
| --- | --- |
| 9.40 | O=C1C(O)=C([C@H]2CC[C@H](c3ccc(Cl)cc3)CC2)C(=O)c2ccccc21 [atovaquone] |
| 5.26 | [H]/N=C(\N/C(=N/[H])Nc1ccc(Cl)cc1)NC(C)C [proguanil] |
